Results reported in PubChem BioAssay AID1645864 (Buhrlage Lab, Dana-Farber Cancer Institute and Novartis …, 2021).
The source made the active and inactive calls.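 The calls were made as follows: active = maximal inhibition of USP17 at or above 30% in the confirmation dose-response, a value not among the printed readouts; inactive = the rest.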

What follows are compounds tested against Ubiquitin carboxyl-terminal hydrolase 17-like protein 5 (Homo sapiens) (UniProt A8MUK1) (assay: ubiquitin-specific protease 17 inhibitors, concentration series, biochemical, verification of primary actives (AID 1645864)). Details: purified USP17, ubiquitin-rhodamine cleavage fluorescence, 3 h.
Ubiquitin carboxyl-terminal hydrolase 17-like protein 5 (Homo sapiens), sequence (A8MUK1 whole entry, looked up): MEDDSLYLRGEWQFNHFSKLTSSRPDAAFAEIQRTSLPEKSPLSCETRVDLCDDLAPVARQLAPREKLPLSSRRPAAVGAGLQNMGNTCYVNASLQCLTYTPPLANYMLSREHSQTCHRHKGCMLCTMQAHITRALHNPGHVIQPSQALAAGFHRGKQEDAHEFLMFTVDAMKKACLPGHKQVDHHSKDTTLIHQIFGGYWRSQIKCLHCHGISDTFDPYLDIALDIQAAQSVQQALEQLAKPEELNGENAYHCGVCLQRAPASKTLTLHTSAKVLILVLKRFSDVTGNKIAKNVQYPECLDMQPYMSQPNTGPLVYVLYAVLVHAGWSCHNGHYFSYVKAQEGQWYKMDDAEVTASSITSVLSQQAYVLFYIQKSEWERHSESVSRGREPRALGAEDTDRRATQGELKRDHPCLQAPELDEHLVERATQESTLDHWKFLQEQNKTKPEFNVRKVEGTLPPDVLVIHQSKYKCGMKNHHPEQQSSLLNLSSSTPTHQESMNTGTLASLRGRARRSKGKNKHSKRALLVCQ

Row | IC50 | SMILES
1 | 14.5 µM | O=C(Cn1cnc2c(oc3ccccc32)c1=O)NCc1ccccc1Cl
2 | 11.8 µM | Cc1ccc(Cn2c(=O)c3ccccc3n3c(CCC(=O)N4CCN(c5ccccn5)CC4)nnc23)cc1
3 | 2.51 µM | O=C(Nc1ccc2c(c1)OCCO2)c1cccc2nc3ccccc3nc12
4 | > 50 µM (inactive) | CCc1nc2cc(NC(=O)c3cccc(N4CCCC4=O)c3)ccc2n1C
5 | > 50 µM (inactive) | O=C(Nc1ccncc1)c1ncoc1-c1cccc(Cl)c1
6 | > 50 µM (inactive) | O=C(NC1CCN(Cc2ccccc2)CC1)c1[nH]nc2c1COc1ccccc1-2
7 | 25.2 µM | COc1ccc2c(c1)CCc1c(C(=O)NCc3cccnc3)noc1-2
8 | > 50 µM (inactive) | Cc1nc(-c2ccc(NC(=O)N3CCN(c4ccccn4)CC3)cc2)no1
9 | > 50 µM (inactive) | COc1ccc(C(=O)Nc2cc3c4c(c2)C(C)C(=O)N4CCC3)cc1 (stereo not drawn)
10 | > 50 µM (inactive) | O=C(Nc1ccc(SCc2nnc(-c3ccccc3)o2)cc1)C1CC1
11 | 33.5 µM | COc1cccc(OCCCn2c(C(C)NC(=O)c3ccco3)nc3ccccc32)c1 (stereo not drawn)
12 | 5.68 µM | COc1ccccc1-c1nc2c3c(ncn2n1)Oc1c(c(C)nn1-c1ccccc1)C3c1cccnc1 (stereo not drawn)
13 | 39.2 µM | COc1ccccc1CNC(=O)Nc1cccc2ccccc12
14 | 9.93 µM | COc1ccc(CNC(=O)Nc2cccc3ccccc23)cc1
15 | 14.5 µM | COC(=O)COc1ccc(/C=N/NC(=O)c2ccc(CN3CCc4ccccc4C3)cc2)cc1
16 | > 50 µM (inactive) | CCS(=O)(=O)c1ccccc1C(=O)Nc1ccc2sc(C)nc2c1
17 | 36 µM | O=C(NCCCc1nc2ccccc2n1Cc1c(Cl)cccc1Cl)c1ccco1
18 | 5.03 µM | Cc1cccc(CNC(=O)c2ccc(-c3nnc(-c4cccc(C)c4)o3)cc2)c1
19 | 22.9 µM | Cn1c(=O)c2cc(C(=O)Nc3ccc(F)cc3)cnc2n(C)c1=O
20 | 37.4 µM | COc1ccc(-c2[nH]c3ccccc3c2SCCNC(=O)c2ccc(S(=O)(=O)N3CCOCC3)cc2)cc1
21 | > 50 µM (inactive) | Cc1cccc(C(=O)N2CCc3cc(-c4nc(NC(=O)CNc5ccccc5)sc4C)ccc32)c1
22 | > 50 µM (inactive) | COc1cccc2c1OCC(C(=O)NCc1ccc(F)cc1)=C2

Row | IC50 | SMILES
23 | 16.6 µM | CCC(C)c1ccc(O[C@@H]2O[C@@H]3COC(c4ccccc4)O[C@H]3[C@H](O)[C@H]2NC(C)=O)cc1 (stereo partly drawn)
24 | 9.01 µM | Cc1cc(N2CCC(NC(=O)NCc3ccc(F)cc3)C2=O)ccc1F (stereo not drawn)
25 | 5.77 µM | C[C@@H](C(=O)NCc1ccc(F)cc1)N1C(=O)N2CCc3c([nH]c4ccccc34)[C@@]2(C)C1=O
26 | > 50 µM (inactive) | Cc1cc(CSc2ncccc2C(=O)Nc2ccnn2Cc2cccnc2)no1
27 | 16 µM | O=C(Nc1ccccc1)c1ccc2c(c1)CC(c1ccccc1)OC2=O (stereo not drawn)
28 | > 50 µM (inactive) | COc1ccc(C(=O)Nc2ccc3c(c2)C(=O)N(C)c2ccccc2O3)cc1
29 | 20.2 µM | CNS(=O)(=O)c1ccc(CNC(=O)c2cc(-c3ccc(C)cc3)no2)cc1
30 | 9.91 µM | O=C(COC(=O)c1ccc(Cl)cc1)Nc1ccc2[nH]c(=O)[nH]c2c1
31 | > 50 µM (inactive) | O=C(Nc1ccccc1)c1nc2c(s1)CCN(C(=O)c1ccccc1)CC2
32 | 16.6 µM | COc1ccccc1NC(=O)Cn1cc(C(=O)c2ccc(C)cc2)c(=O)c2cc(Cl)ccc21
33 | 33.9 µM | Cc1cc(C)n(-c2ccc(C(=O)NCc3ccc(F)cc3)cn2)n1
34 | 5.43 µM | CCOc1ccc(NC(=O)Cn2c(=O)n(CCC(=O)NCc3ccco3)c(=O)c3ccccc32)cc1
35 | 31 µM | CCc1ccccc1NC(=O)c1cc(-c2ccccn2)n[nH]1
36 | 47.6 µM | O=C(Nc1ccc2c(c1)OCO2)c1cc(-c2cccnc2)n(-c2ccccc2)n1
37 | 22.9 µM | COc1ccccc1NC(=O)Cn1cc(C(=O)c2ccc(C)cc2)c(=O)c2ccccc21
38 | 23.9 µM | O=C1Oc2nc3ccccc3cc2CN1Cc1ccco1
39 | 45 µM | CCC(C)NC(=O)Cn1c(=O)n(-c2ccccc2)c(=O)c2ccc(C(=O)NCc3ccco3)cc21 (stereo not drawn)
40 | 23 µM | Cc1cc(C)n(-c2ccc(C(=O)Nc3cccc(S(=O)(=O)N4CCCC4)c3)cc2)n1
41 | > 50 µM (inactive) | CCc1ccc(OCc2nnc(SCC(=O)Nc3ccccc3OC)n2Cc2ccccc2)cc1
42 | 15.1 µM | O=C(C(c1ccccc1)c1ccccc1)N1CCC(c2nc3c(nnn3Cc3c(F)cccc3Cl)c(=O)[nH]2)CC1
43 | 30.9 µM | CC1(C(=O)NC2CCCC2)Cn2c(cc3ccccc32)C(=O)N1c1ccc(F)cc1 (stereo not drawn)
44 | 45.1 µM | O=C(Cn1nc2ccc(C(=O)NCc3ccccc3)cn2c1=O)Nc1ccc2c(c1)OCO2

Further lines, the compound ahead of its results:

Row | SMILES | IC50
45 | CCOc1ccc(-c2noc(-c3nn(-c4cccc(OC)c4)ccc3=O)n2)cc1 | 10 µM
46 | Cc1cccc(NC(=O)c2ccn(COc3ccc(F)cc3F)n2)c1C | > 50 µM (inactive)
47 | CN1C(=O)[C@@]23C[C@]4([C@@]56C[C@]78SS[C@](CO)(C(=O)N7[C@@H]5Nc5ccccc56)N(C)C8=O)c5ccccc5N[C@@H]4N2C(=O)[C@]1(CO)SS3 | > 50 µM (inactive)
48 | O=C(COc1ccc(F)cc1)Nc1cnc(-c2ccc(Cl)cc2)nc1 | 24 µM
49 | Cc1ccc(S(=O)(=O)Nc2ccccc2SCCS(=O)(=O)c2ccc(Cl)cc2)cc1 | > 50 µM (inactive)
50 | CC1=C(c2ccc(F)cc2)S(=O)(=O)NC1=NCC(=O)Nc1ccc(F)cc1F | 25.9 µM
51 | C=C(NC(=O)C(=C)NC(=O)c1csc(C2=N[C@@H]3c4csc(n4)[C@H]4NC(=O)c5csc(n5)[C@H]([C@](C)(O)[C@@H](C)O)NC(=O)[C@H]5CSC(=N5)/C(=C/C)NC(=O)C([C@@H](C)O)NC(=O)c5csc(n5)C3(CC2)NC(=O)[C@H](C)NC(=O)C(=C)NC(=O)[C@H](C)NC(=O)C([C@@H](C)CC)N[C@@H]2C=Cc3c(C(C)O)cc(nc3[C@H]2O)C(=O)OC4C)n1)C(N)=O (stereo partly drawn) | > 50 µM (inactive)
52 | Cc1ccc(NC2=NC(c3ccco3)n3c(nc(C)cc3=O)N2)c(C)c1 (stereo not drawn) | 4.62 µM
53 | CC(=O)N1Cc2ccccc2CC2(CCCN(CC3CCOCC3)C2)C1 (stereo not drawn) | > 50 µM (inactive)
54 | CC1(C)OC2=C(C(=O)c3cc(O)cc(O)c3C2=O)c2cc(CO)c(O)cc21 | 5.7 µM
55 | CN(C(=O)c1cccc2cccnc12)c1nc2c(s1)CCc1occc1-2 | 24.9 µM
56 | CCCc1nc2sc3c(N(CC)CC)ncnc3c2c2c1CCC2 | > 50 µM (inactive)
57 | Clc1cccc(N2CCN(c3ncnc4nc[nH]c34)CC2)c1 | > 50 µM (inactive)
58 | CC1(C)Cc2nc3sc4c(=O)n(CC(=O)NCc5ccccc5)cnc4c3cc2CO1 | 44.9 µM
59 | COc1cnc(-c2ccccn2)nc1Sc1ccc(C)cc1 | > 50 µM (inactive)
60 | Cc1ccc(-c2nc(NC(=O)COc3ccc(Cl)cc3)no2)cc1 | 1.33 µM
61 | O=C(CN1C=NC2=NS(=O)(=O)c3ccccc3N21)Nc1cc(F)ccc1F | 33.4 µM
62 | Cc1ccc2nc(CCc3ccc(NS(=O)(=O)c4cccc(Cl)c4C)cc3)[nH]c2c1 | > 50 µM (inactive)
63 | O=C(Nc1ccc2c(c1)OCCO2)c1ccc(N2CCCCC2)nn1 | > 50 µM (inactive)
64 | CC(OC(=O)c1ccc2c(c1)OCCO2)C(=O)NCC1CCCCC1 (stereo not drawn) | 30.1 µM
65 | Cc1nn(-c2nc3ccccc3[nH]2)c2c1C(c1cccs1)CC(=O)N2 (stereo not drawn) | > 50 µM (inactive)
66 | FC(F)(F)c1cccc(N2CCN(c3nc4ccccc4n4nnnc34)CC2)c1 | > 50 µM (inactive)
67 | CS(=O)(=O)n1nc(NCc2ccc(F)cc2)nc1NCc1ccc(F)cc1 | > 50 µM (inactive)
68 | CC(C)CC[C@H]1O[C@@H](CC(=O)O)Cc2cc3c(c(O)c21)C(=O)c1sc(=O)n(C)c1C3=O | 0.194 µM
69 | CSc1nc2ncc3c(=O)n(CCc4ccccc4)ccc3n2n1 | > 50 µM (inactive)

Row | SMILES | IC50
70 | CC(=O)CN1CC2(CCN(Cc3ccc(F)cc3)CC2)COc2ccccc2S1(=O)=O | > 50 µM (inactive)
71 | Cc1c(-c2nc(-c3ccccc3Cl)no2)nnn1-c1cccc(F)c1 | 6.66 µM
72 | Cc1ccc(NC(=O)c2ccn(COc3ccc(F)cc3)n2)nc1 | 32.1 µM
73 | Cc1noc(-c2cccc(=O)n2CC(=O)Nc2ccc(C)c(C)c2)n1 | 20.5 µM
74 | CC1=C(c2ccc(Cl)cc2)S(=O)(=O)NC1=NCC(=O)Nc1ccc(F)cc1 | 20.3 µM
75 | NC(=O)c1nc(-c2cccnc2)nc2c1[nH]c(=O)n2-c1ccc2c(c1)OCO2 | 4.01 µM
76 | C=C1CCC2[C@](C)(CCC[C@]2(C)C(=O)OC)[C@H]1CCc1ccoc1C[N+](C)(C)Cc1ccccc1 (stereo partly drawn) | > 50 µM (inactive)
77 | COc1c(C)c(C(O)C(C)O)c2[nH]c3ccc(CC=C(C)C)cc3c2c1O (stereo not drawn) | 17.1 µM
78 | COc1ccc(CNC(=O)CSc2nc3nc(C)ccc3o2)cc1 | 25 µM
79 | COc1ccc(OC)c(NC(=O)C2=C(C)Nc3ncnn3C2c2ccccc2OCc2ccc(C)cc2)c1 (stereo not drawn) | 12.2 µM
80 | O=C(Cn1ccc2ccc(N3CCOCC3)nc21)NCc1ccccc1F | > 50 µM (inactive)
81 | CO[C@H]1/C=C/OC2(C)Oc3c(C)c(O)c4c(c3C2=O)C2(C=C(NC(=O)/C(C)=C\C=C\[C@H](C)[C@H](O)[C@@H](C)[C@@H](O)[C@@H](C)[C@H](OC(C)=O)C1C)C4=O)OCC(=O)O2 (stereo partly drawn) | 42.6 µM
82 | Fc1ccc(Nc2nc(Nc3cccc(F)c3)nc3nccnc23)cc1 | > 50 µM (inactive)
83 | O=C1C[C@@H](O)[C@H](O)[C@@]23O[C@@]12C1(Oc2cccc4cccc(c24)O1)[C@@H]1O[C@@H]1[C@@H]3O | 22 µM
84 | CCC[C@H]1O[C@@H]2CC(=O)O[C@@H]2C2=C1C(=O)c1c(O)cccc1C2=O | 1.08 µM
85 | O=C(c1cc(-c2ccncc2)n[nH]1)N1CCC(C(=O)N2CC=C(c3ccccc3)CC2)CC1 | 28.1 µM
86 | O=c1c(-c2nc(C3CC3)no2)cccn1Cc1c(F)cccc1Cl | > 50 µM (inactive)
87 | COc1ccc(OC)c(-c2c(C#N)c(C)nc3c2N2CCC3CC2)c1 | 6.92 µM
88 | Fc1cc(F)c2[nH]cc(-c3nnnn3-c3ccc4ccccc4c3)c2c1 | 6.56 µM
89 | Cc1ccc2c(Nc3ccc(CC(=O)O)cc3)c(C(=O)N3CCCC3)cnc2n1 | > 50 µM (inactive)
90 | COC(=O)c1ccc(Cn2cnc3ccc(F)cc3c2=O)o1 | > 50 µM (inactive)
91 | CCCc1nc2sc3c(NC4CCCCC4)ncnc3c2c2c1CCC2 | > 50 µM (inactive)
92 | CNC(=O)CC1NC(=O)c2csc(n2)-c2ccc(-c3nc(C4=NC(C(=O)N5CCCC5C(N)=O)CO4)cs3)nc2-c2csc(n2)-c2csc(n2)C(C(O)c2ccccc2)NC(=O)CNC(=O)c2nc(sc2COC)C(C(C)C)NC(=O)c2nc1sc2C (stereo not drawn) | 29.6 µM
93 | Cc1sc(-c2cccnc2)nc1OC(=O)c1ccc(Cl)c(Cl)c1 | > 50 µM (inactive)
